# Target: T1, EBP (Mus musculus, UniProt P70245)
# T1 construct: endogenous in cells; host or cells: mouse EpiSC-derived oligodendrocyte progenitor cells (EpiSC5 line)
# T1 sequence (P70245 1-230): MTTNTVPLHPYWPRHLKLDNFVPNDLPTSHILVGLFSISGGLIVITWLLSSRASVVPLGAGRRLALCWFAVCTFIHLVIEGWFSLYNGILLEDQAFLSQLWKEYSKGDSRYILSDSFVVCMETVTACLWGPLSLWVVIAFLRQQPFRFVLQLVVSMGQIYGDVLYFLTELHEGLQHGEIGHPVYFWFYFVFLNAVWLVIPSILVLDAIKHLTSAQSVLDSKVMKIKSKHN
# Experiment: GC/MS-based sterol profiling in EpiSC-derived OPCs (EBP inhibition)
# Format: cell-based
# Description: EpiSC-derived OPCs were plated at one million cells per well in PDL- and laminin-coated six well plates with differentiation media. After 24 hours, cells were dissociated with Accutase, rinsed with saline, and cell pellets were frozen. For sterol analyses, cells were lysed in methanol (Sigma-Aldrich) with agitation for 30 minutes and cell debris removed by centrifugation at 10,000 rpm for 15 min. Cholesterol-d7 standard (25,26,26,26,27,27,27-^2H7-cholesterol, Cambridge Isotope Laboratories) was added before drying under nitrogen stream and derivatization with 55 al of bis(trimethylsilyl)trifluoroacetamide/trimethylchlorosilane to form trimethylsilyl derivatives. Following derivatization at 60° C. for 20 minutes, 1 μl was analyzed by gas chromatography/mass spectrometry using an Agilent 5973 Network Mass Selective Detector equipped with a 6890 gas chromatograph system and a HP-5MS capillary column ([…]). Samples were injected in splitless mode and analyzed using electron impact ionization. Ion fragment peaks were integrated to calculate sterol abundance, and quantitation was relative to cholesterol-d7. The following m/z ion fragments were used to quantitate each metabolite: cholesterol-d7 (465), FF-Mas (482), cholesterol (368), zymostenol (458), zymosterol (456), desmosterol (456, 343), 7-dehydrocholesterol (456, 325), lanosterol (393), lathosterol (458), 14-dehydrozymostenol (456). […] After derivatization, 1 al was analyzed by gas chromatography/mass spectrometry using an Agilent 5973 Network Mass Selective Detector equipped with a 6890 gas chromatograph system and a HP-5MS capillary column ([…]). Samples were analyzed in full scan mode using electron impact ionization; ion fragment peaks were integrated to calculate sterol abundance, and quantitation was relative to cholesterol-d7. The following ion fragments were used to quantitate each metabolite: cholesterol-d7 (465), cholesterol (368)(Sigma Aldrich), zymostenol (458), All standards were obtained from Avanti Polar Lipids unless otherwise indicated. […]
# [1] = 100 nm, 24 hours, versus DMSO control
smiles,measurement,setting,value
CCN(C/C=C\c1ccc(C2CCCCC2)c(Cl)c1)C1CCCCC1 [Cis-N-cyclohexyl-N-ethyl-3-(3-chloro-4-cyclohexylphenyl)prop-2-enylamine],zymostenol in mouse OPCs (FIG. 5),"10 nM, 30 nM, 100 nM",accumulate zymostenol
same,cholesterol in OPCs (FIG. 1B),[1],produce lesser amounts of cholesterol
same,zymostenol in OPCs (FIG. 1B),[1],accumulate zymostenol

# From US10918610B2, “Compounds and methods of promoting myelination” (Case Western Reserve University, priority 2017, dated 2021)
